Laboratory results reported in ChEMBL document CHEMBL1759880, “A facile, one-pot synthesis, characterization and antimicrobial activity of o-hydroxy anilide derivatives and 1-substituted-1,3-dicyclohexylurea analogs of long chain carboxylic acids” (2011).
≈ marks a conversion by molar mass, not a printed value.

Experiments:
[1] = system: Staphylococcus aureus; assay: Antibacterial activity against Staphylococcus aureus ATCC 25923 after 24 hrs by broth dilution technique; format: functional; conditions: ATCC-25923, 24 h
[2] = system: Escherichia coli; assay: Antibacterial activity against Escherichia coli ATCC 25922 after 24 hrs by broth dilution technique; format: functional; conditions: ATCC-25922, 24 h
[3] = system: Escherichia coli; assay: Antibacterial activity against Escherichia coli ATCC 25922 after 24 hrs by disc diffusion method; format: functional
[4] = system: Klebsiella pneumoniae; assay: Antibacterial activity against Klebsiella pneumoniae clinical isolate after 24 hrs by disc diffusion method; format: functional
[5] = system: Streptococcus pyogenes; assay: Antibacterial activity against Streptococcus pyogenes clinical isolate after 24 hrs by broth dilution technique; format: functional
[6] = system: Streptococcus pyogenes; assay: Antibacterial activity against Streptococcus pyogenes clinical isolate after 24 hrs by disc diffusion method; format: functional
[7] = system: Staphylococcus aureus; assay: Antibacterial activity against Staphylococcus aureus ATCC 25923 after 24 hrs by disc diffusion method; format: functional
[8] = system: Candida albicans; assay: Antifungal activity against Candida albicans after 3 to 4 days by disc diffusion method; format: functional
[9] = system: Aspergillus fumigatus; assay: Antifungal activity against Aspergillus fumigatus after 3 to 4 days by disc diffusion method; format: functional
[10] = system: Talaromyces marneffei; assay: Antifungal activity against Penicillium marneffei after 3 to 4 days by disc diffusion method; format: functional
[11] = system: Trichophyton mentagrophytes; assay: Antifungal activity against Trichophyton mentagrophytes after 3 to 4 days by disc diffusion method; format: functional
[12] = system: Candida albicans; assay: Antifungal activity against Candida albicans after 48 hrs by broth dilution technique; format: functional
[13] = system: Aspergillus fumigatus; assay: Antifungal activity against Aspergillus fumigatus after 48 hrs by broth dilution technique; format: functional
[14] = system: Talaromyces marneffei; assay: Antifungal activity against Penicillium marneffei after 48 hrs by broth dilution technique; format: functional
[15] = system: Trichophyton mentagrophytes; assay: Antifungal activity against Trichophyton mentagrophytes after 48 hrs by broth dilution technique; format: functional
[16] = system: Pseudomonas aeruginosa; assay: Antibacterial activity against Pseudomonas aeruginosa ATCC 27853 after 24 hrs by disc diffusion method
[17] = system: Pseudomonas aeruginosa; assay: Antibacterial activity against Pseudomonas aeruginosa ATCC 27853 after 24 hrs by broth dilution technique; conditions: ATCC-27853, 24 h
[18] = system: Klebsiella pneumoniae; assay: Antibacterial activity against Klebsiella pneumoniae clinical isolate after 24 hrs by broth dilution technique; format: functional

Row | Compound | MIC [1] [µg/mL] | MBC [2] [µg/mL] | MIC [2] [µg/mL] | diameter of the inhibition zone (DIZ) [3] [mm] | diameter of the inhibition zone (DIZ) [4] [mm] | diameter of the inhibition zone (DIZ) [6] [mm] | diameter of the inhibition zone (DIZ) [7] [mm] | diameter of the inhibition zone (DIZ) [8] [mm] | diameter of the inhibition zone (DIZ) [9] [mm] | diameter of the inhibition zone (DIZ) [10] [mm] | diameter of the inhibition zone (DIZ) [11] [mm] | MFC [12] [µg/mL] | MIC [12] [µg/mL] | MFC [13] [µg/mL] | MIC [13] [µg/mL] | MFC [15] [µg/mL] | MIC [15] [µg/mL] | diameter of the inhibition zone (DIZ) [16] [mm] | MBC [17] [µg/mL] | MIC [17] [µg/mL] | other results
1 | CCCCCCCC/C=C\CCCCCCCC(=O)Nc1ccccc1O | 100 (≈ 268 µM) | 100 (≈ 268 µM) | 100 (≈ 268 µM) | 13.2 | 10.8 | 11.4 | 11.1 | 15.3 | 11.7 | 9.2 | 8.9 | 50 (≈ 134 µM) | 50 (≈ 134 µM) | 100 (≈ 268 µM) | 25 (≈ 66.9 µM) | 100 (≈ 268 µM) | 50 (≈ 134 µM) | 15.2 | 100 (≈ 268 µM) | 100 (≈ 268 µM) | MBC [1]: 100 µg/mL (≈ 268 µM); MBC [5]: 100 µg/mL (≈ 268 µM); MIC [5]: 50 µg/mL (≈ 134 µM); MFC [14]: 100 µg/mL (≈ 268 µM); MIC [14]: 50 µg/mL (≈ 134 µM)
2 | CCCCCCCCCCCCCCCC(=O)N(C(=O)NC1CCCCC1)C1CCCCC1 | 50 (≈ 108 µM) | 100 (≈ 216 µM) | 50 (≈ 108 µM) | 12.3 | 10.7 | 11.2 | 10.1 | 14.2 | 12.5 | 9.9 | 10.7 | 50 (≈ 108 µM) | 25 (≈ 54 µM) | 100 (≈ 216 µM) | 50 (≈ 108 µM) | 25 (≈ 54 µM) | 12.5 (≈ 27 µM) | 14.9 | 100 (≈ 216 µM) | 25 (≈ 54 µM) | MBC [1]: 100 µg/mL (≈ 216 µM); MBC [5]: 100 µg/mL (≈ 216 µM); MIC [5]: 50 µg/mL (≈ 108 µM); MBC [18]: 100 µg/mL (≈ 216 µM); MIC [18]: 50 µg/mL (≈ 108 µM); MFC [14]: 100 µg/mL (≈ 216 µM); MIC [14]: 50 µg/mL (≈ 108 µM)
3 | CCCCC/C=C\CC[C@H](O)CCCCCCCC(=O)N(C(=O)NC1CCCCC1)C1CCCCC1 | 25 (≈ 49.5 µM) | 100 (≈ 198 µM) | 50 (≈ 99 µM) | 23.4 | 20.6 | 20.8 | 19.5 | 24.2 | 21.2 | 13.8 | 18.3 | 12.5 (≈ 24.8 µM) | 12.5 (≈ 24.8 µM) | 25 (≈ 49.5 µM) | 12.5 (≈ 24.8 µM) | 25 (≈ 49.5 µM) | 12.5 (≈ 24.8 µM) | 27.1 | 100 (≈ 198 µM) | 25 (≈ 49.5 µM) | MBC [1]: 50 µg/mL (≈ 99 µM); MBC [5]: 25 µg/mL (≈ 49.5 µM); MIC [5]: 25 µg/mL (≈ 49.5 µM); MBC [18]: 100 µg/mL (≈ 198 µM); MIC [18]: 25 µg/mL (≈ 49.5 µM); MFC [14]: 25 µg/mL (≈ 49.5 µM); MIC [14]: 12.5 µg/mL (≈ 24.8 µM)
4 | C=CCCCCCCCCC(=O)Nc1ccccc1O | 100 (≈ 363 µM) | – | – | 12.7 | – | 11.1 | 10.9 | 12.5 | 9.2 | 8.9 | 8.3 | 100 (≈ 363 µM) | 50 (≈ 182 µM) | – | – | – | – | 14.3 | – | – | MBC [18]: 100 µg/mL (≈ 363 µM); MIC [18]: 100 µg/mL (≈ 363 µM)
5 | COC1=CC(=O)C[C@@H](C)[C@]12Oc1c(Cl)c(OC)cc(OC)c1C2=O [GRISEOFULVIN] | – | – | – | – | – | – | – | 30 | 27 | 20 | 24 | 12.5 (≈ 35.4 µM) | 6.25 (≈ 17.7 µM) | 12.5 (≈ 35.4 µM) | 6.25 (≈ 17.7 µM) | 12.5 (≈ 35.4 µM) | 6.25 (≈ 17.7 µM) | – | – | – | MFC [14]: 12.5 µg/mL (≈ 35.4 µM); MIC [14]: 6.25 µg/mL (≈ 17.7 µM)
6 | CCCCCC[C@@H](O)C/C=C\CCCCCCCC(=O)Nc1ccccc1O | 50 (≈ 128 µM) | 100 (≈ 257 µM) | 25 (≈ 64.2 µM) | 17.7 | 14.7 | 16.1 | 15.6 | 16.2 | 12.8 | 10.1 | 10.5 | 50 (≈ 128 µM) | 25 (≈ 64.2 µM) | 100 (≈ 257 µM) | 50 (≈ 128 µM) | 100 (≈ 257 µM) | 50 (≈ 128 µM) | 15.2 | 100 (≈ 257 µM) | 25 (≈ 64.2 µM) | MBC [1]: 100 µg/mL (≈ 257 µM); MBC [5]: 100 µg/mL (≈ 257 µM); MIC [5]: 50 µg/mL (≈ 128 µM); MFC [14]: 100 µg/mL (≈ 257 µM); MIC [14]: 50 µg/mL (≈ 128 µM)
7 | O=C(O)c1cn(C2CC2)c2cc(N3CCNCC3)c(F)cc2c1=O [CIPROFLOXACIN] | – | – | – | – | – | – | 22 | – | – | – | – | – | – | – | – | – | – | 32 | – | 6.5 (≈ 19.6 µM) | –
8 | CCCCCCCC/C=C\CCCCCCCC(=O)N(C(=O)NC1CCCCC1)C1CCCCC1 | – | 100 (≈ 205 µM) | 100 (≈ 205 µM) | 15.4 | 12.8 | 13.5 | 13.4 | 13.9 | 9.9 | – | – | 100 (≈ 205 µM) | 50 (≈ 102 µM) | 100 (≈ 205 µM) | 50 (≈ 102 µM) | – | – | 17.2 | 100 (≈ 205 µM) | 100 (≈ 205 µM) | –
9 | CCCCCC[C@@H](O)C/C=C\CCCCCCCC(=O)N(C(=O)NC1CCCCC1)C1CCCCC1 | 50 (≈ 99 µM) | 100 (≈ 198 µM) | 50 (≈ 99 µM) | 20.7 | 17.5 | 19.1 | 18.5 | 18.3 | 14.9 | – | 13.1 | 50 (≈ 99 µM) | 25 (≈ 49.5 µM) | 100 (≈ 198 µM) | 25 (≈ 49.5 µM) | 100 (≈ 198 µM) | 25 (≈ 49.5 µM) | 23.2 | 100 (≈ 198 µM) | 50 (≈ 99 µM) | MBC [1]: 100 µg/mL (≈ 198 µM); MBC [5]: 100 µg/mL (≈ 198 µM); MIC [5]: 50 µg/mL (≈ 99 µM); MBC [18]: 100 µg/mL (≈ 198 µM); MIC [18]: 50 µg/mL (≈ 99 µM)
10 | C=CCCCCCCCCC(=O)N(C(=O)NC1CCCCC1)C1CCCCC1 | – | 100 (≈ 256 µM) | 100 (≈ 256 µM) | 10.6 | – | – | – | 12.1 | – | – | – | 100 (≈ 256 µM) | 50 (≈ 128 µM) | – | – | – | – | 12.1 | 100 (≈ 256 µM) | 50 (≈ 128 µM) | –
